# Test results taken from PMC2840032, “Discovery of Fragment Molecules That Bind the Human Peroxiredoxin 5 Active Site” (PLoS ONE, 2010).
# Experiments:
# [1] = target: T1, human PRDX5 (Homo sapiens, UniProt P30044); assay: NMR screening: STD factor (f STD) of fragments with PRDX5; format: binding; conditions: for STD factor (f STD): Figure 2, relative degree of saturation normalized to that of F090; for f STD: F152 compared with D3
# T1 construct: 6xHis (N); made in house; host or cells: E. coli strain M15 (pRep4)
# T1 sequence (P30044 53-214): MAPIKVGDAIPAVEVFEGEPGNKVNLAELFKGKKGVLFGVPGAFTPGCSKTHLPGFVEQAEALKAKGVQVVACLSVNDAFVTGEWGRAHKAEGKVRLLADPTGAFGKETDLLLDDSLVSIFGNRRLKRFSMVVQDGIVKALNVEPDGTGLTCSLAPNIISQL
# Protocol: All spectra were acquired at 20°C with a Varian Inova 600 MHz NMR spectrometer, equipped with a standard 5 mm triple-resonance inverse probe with a z-axis field gradient, actively shielded, and with an autosampler robot. The NMR samples were prepared with a robot TECAN Miniprep 60. For 175 fragments, 32 NMR tubes were prepared with 20 µM of the reduced protein and 600 µM fragments. For 25 fragments (6 NMR samples) that were not soluble at 600 µM in water, the final concentration in the NMR tube was set to 200 µM. All samples contained 1 mM DTT. […] Control 1D ^1H spectra preceded all experiments to assess the purity and stability of the fragments. NMR screening was achieved using 1D STD [30] and Waterlogsy experiments. The parameters used were the same as previously described. All NMR spectra were processed with the Varian VnmrJ software.
# (§1) KD values were determined by fitting the plot of [L]tot vs. f STD as previously published.
# [2] = Solubility in water / in the assay; format: physicochemical; conditions: for solubility in water: for KD measurement by STD titration; for solubility in the assay: thioredoxin peroxidase inhibition assay
# Description: We previously designed a small generalist library of 60 fragments and used it to elaborate an inhibitor of the Creatine kinase protein [27], based on the identification of an initial fragment by NMR screening. Here, the library was enlarged and contains 200 fragments that correspond to small commercial compounds with physicochemical properties defined by the rule of three. The 140 newly added fragments were chosen so as to enhance the diversity of the library in terms of size, shape and chemical functionalities. […] Waterlogsy experiments were recorded to detect possible aggregation as LOGSY effects are characteristic of high molecular weight compounds in water. When the molecules were not soluble at 600 µM, solutions were tested at 200 µM. If not soluble, the molecules were rejected from the selection. Then, to optimize the experimental time and to reduce the protein quantity required for the NMR screening experiments, fragments were pulled into mixtures of 3 to 6 molecules with minimum spectral overlap. NMR spectra of the mixtures were recorded after 3 months to confirm the absence of degradation of the compounds.
# The compounds of the library were chosen from Aldrich or Acros online catalogs with SHAPES-like criteria [40]–[42] and had to fit the rule of three. Aqueous solubility was checked for all compounds by recording ^1H 1D NMR spectrum and Waterlogsy spectrum, [43]. 110 mM stock solutions of the library compounds were prepared in DMSO-d 6 and conserved at −20°C. ^1H 1D NMR spectrum were recorded to check that no degradation occurs over 3 months. Compounds were mixed by 3 to 6 to decrease the NMR experimental time as well as the protein quantity. Criteria for the compound selection for the mixtures were the absence of overlapping resonances in the 1D NMR spectra. The library contained 200 validated fragments.
# [3] = target: T1, human PRDX5; assay: KD measurements by STD factor variation upon titration; format: binding
# Protocol: as §1
# [4] = target: T1, human PRDX5; assay: Thioredoxin peroxidase activity inhibition assay; format: biochemical; conditions: 0–600 µM
# Protocol: Inhibition of thioredoxin peroxidase activity was assayed using thioredoxin peroxidase assay in a 96-well plate reader essentially as described by Kim et al. [48] and Theys et al. [49]. Briefly, the spectrometric assay was performed in a 160 µl reaction mixture containing 500 µM NADPH, 4 µM recombinant S.cerevisiae thioredoxin, 2 µM recombinant S.cervisiae thioredoxin reductase, 0.6 µM human recombinant PRDX5 and increasing concentrations (0 to 6 mM) of fragments (from stock solutions in DMSO) in PBS 0.1M (pH 7.4). The reaction was initiated by adding H2O2 at the final concentration of 100 µM. NADPH oxidation was monitored by following absorbance at 340 nm for 30 min at 37°C. The initial rate of reaction was calculated using the linear portion of the curve and was expressed as the amount of NADPH oxidized per min. The IC50 was calculated with the percentage of remaining thioredoxin peroxidase activity. Measurements were performed in quadruplicates.
SMILES,STD factor (f STD) [1],solubility in water [2],also measured
Oc1ccc(-c2ccc(O)cc2)cc1 [F093],76,too low,solubility in the assay [2]: insufficient solubility
"Oc1ccccc1Cc1ccccc1O [F090, bis-(2-hydroxyphenyl)-methan]",100,,"Kd ([3]; STD titration, reduced PRDX5, read-out: dissociation constant KD): 1.2 ± 0.4 mM; ligand efficiency ([3]; free energy of binding divided by the number of heavy atoms): 0.42 kcal/mol; solubility in the assay [2]: insufficient solubility"
"Oc1ccccc1O [F152, catechol]",32,,f STD [1]: 32%
Oc1ccccc1-c1ccccc1 [F012],88,too low,inhibitory activity on thioredoxin peroxidase activity [4]: no inhibitory activity
Oc1cccc2[nH]c3ccccc3c12 [F069],42,too low,
O=C(c1ccccc1)c1ccc(O)cc1O [F082],69,too low,
"Cc1ccc(O)c(O)c1 [D3, 4-methyl-catechol]",,,f STD [1]: 66%
